Each structure is given as a SMILES string. Where “and” joins values, the source holds several entries; their conditions need not be identical. Identical values can stand only once.

Experiment [1] deals with T1, human GPR119 (Homo sapiens, UniProt Q8TDV5).
T1 sequence (Q8TDV5 1-335): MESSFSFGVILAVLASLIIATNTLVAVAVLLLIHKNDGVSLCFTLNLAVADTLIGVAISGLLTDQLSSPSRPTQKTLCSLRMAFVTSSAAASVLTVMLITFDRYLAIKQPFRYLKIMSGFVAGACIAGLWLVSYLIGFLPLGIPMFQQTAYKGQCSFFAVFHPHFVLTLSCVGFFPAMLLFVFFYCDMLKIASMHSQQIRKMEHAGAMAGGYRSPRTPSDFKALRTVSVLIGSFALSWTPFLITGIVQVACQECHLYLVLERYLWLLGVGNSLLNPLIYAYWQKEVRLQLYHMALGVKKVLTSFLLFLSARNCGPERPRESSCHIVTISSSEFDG
The experiment is described as follows: GPR119 radioligand binding assay ([3H]-Compound A or B, membranes of HEK 293FT cells expressing hGPR119). Set-up: host or cells: HEK293-CRE beta-lactamase. Particulars: calculated from IC50 with Cheng-Prusoff; each line a separate determination. Here is the method: HEK 293FT cells (Invitrogen, Carlsbad, Calif.) were grown in a shake flask in 293Freestyle medium (Invitrogen) supplemented with 50 microg/mL neomycin and 10 mM HEPES (37C, 8% carbon dioxide, shaking). The cells were centrifuged gently (approximately 500×g, 10 minutes) and the pellet resuspended in a mixture of Dulbecco's PBS (minus Mg++/−Ca++) supplemented with 18% fetal bovine serum (Sigma Aldrich) and P1 virus such that the multiplicity of infection (MOI) was 10 and the final cell density was 1.3×10^6/mL (total volume 2.5 liters). The cells were transferred to a 5 liter Wave Bioreactor Wavebag (Wave Technologies, Mass.) and incubated for 4 hours at 27 degrees Celsius (17 rocks/min, 7 degrees platform angle); at the end of the incubation period, an equal volume (2.5 liters) of 293Freestyle medium supplemented with 30 mM sodium butyrate (Sigma Aldrich) was added (final concentration=15 mM), and the cells were grown for 20 hours (37 degrees Celsius, 8% CO2 [0.2 liters/min}, 25 rocks/minute, 7 degrees platform angle). Cells were harvested via centrifugation (3,000×g, 10 minutes), washed once on DPBS (minus Ca++/Mg++), resuspended in 0.25M sucrose, 25 mM HEPES, 0.5 mM EDTA, pH 7.4 and frozen at −80 degrees Celsius.
The frozen cells were thawed on ice and centrifuged at 700×g (1400 rpm) for 10 minutes at 4 degrees Celsius. The cell pellet was resuspended in 20 mL phosphate-buffered saline, and centrifuged at 1400 rpm for 10 minutes. The cell pellet was then resuspended in homogenization buffer (10 mM HEPES (Gibco #15630), pH 7.5, 1 mM EDTA (BioSolutions, #BIO260-15), 1 mM EGTA (Sigma, #E-4378), 0.01 mg/mL benzamidine (Sigma #B 6506), 0.01 mg/mL bacitracin (Sigma #B 0125), 0.005 mg/mL leupeptin (Sigma #L 8511), 0.005 mg/mL aprotinin (Sigma #A 1153)) and incubated on ice for 10 minutes. Cells were then lysed with 15 gentle strokes of a tight-fitting glass Dounce homogenizer. The homogenate was centrifuged at 1000×g (2200 rpm) for 10 minutes at 4 degrees Celsius. The supernatant was transferred into fresh centrifuge tubes on ice. The cell pellet was resuspended in homogenization buffer, and centrifuged again at 1000×g (2200 rpm) for 10 minutes at 4 degrees Celsius after which the supernatant was removed and the pellet resuspended in homogenization buffer. This process was repeated a third time, after which the supernatants were combined, Benzonase (Novagen # 71206) and MgCl2 (Fluka #63020) were added to final concentrations of 1 U/mL and 6 mM, respectively, and incubated on ice for one hour. The solution was then centrifuged at 25,000×g (15000 rpm) for 20 minutes at 4 degrees Celsius, the supernatant was discarded, and the pellet was resuspended in fresh homogenization buffer (minus Benzonase and MgCl2). After repeating the 25,000×g centrifugation step, the final membrane pellet was resuspended in homogenization buffer and frozen at −80 degrees Celsius. The protein concentration was determined using the Pierce BCA protein assay kit (Pierce reagents A #23223 and B #23224).
Test compounds were serially diluted in 100% DMSO (J. T. Baker #922401). 2 microL of each dilution was added to appropriate wells of a 96-well plate (each concentration in triplicate). Unlabeled Compound A (or Compound B), at a final concentration of 10 microM, was used to determine non-specific binding. [^3H]-Compound A (or [^3H]-Compound B) was diluted in binding buffer (50 mM Tris-HCl, pH 7.5, (Sigma #T7443), 10 mM MgCl2 (Fluka 63020), 1 mM EDTA (BioSolutions #BIO260-15), 0.15% bovine serum albumin (Sigma #A7511), 0.01 mg/mL benzamidine (Sigma #B 6506), 0.01 mg/mL bacitracin (Sigma #B 0125), 0.005 mg/mL leupeptin (Sigma #L 8511), 0.005 mg/mL aprotinin (Sigma #A 1153)) to a concentration of 60 nM, and 100 microL added to all wells of 96-well plate (Nalge Nunc # 267245). […]

In experiment [2] the target is T1, human GPR119. Put plainly: cAMP HTRF functional assay (hGPR119 HEK-CRE beta-lactamase cells). The conditions noted are these: for EC50: HTRF cAMP, 30 min, 400 microM IBMX, each line a separate determination; for Intrinsic Activity (Human cAMP) / Emax: percent of maximal activity relative to standard GPR119 agonist at 10 micromolar; for Emax: read-out: Intrinsic Activity (Human cAMP). Set-up: host or cells: HEK293-CRE beta-lactamase. In kind it is cell-based. The method, then: GPR119 agonist activity was also determined with a cell-based assay utilizing an HTRF (Homogeneous Time-Resolved Fluorescence) cAMP detection kit (cAMP dynamic 2 Assay Kit; Cis Bio cat #62AM4PEC) that measures cAMP levels in the cell. The method is a competitive immunoassay between native cAMP produced by the cells and the cAMP labeled with the dye d2. The tracer binding is visualized by a Mab anti-cAMP labeled with Cryptate. The specific signal (i.e. energy transfer) is inversely proportional to the concentration of cAMP in either standard or sample.
Specifically, hGPR119 HEK-CRE beta-lactamase cells (Invitrogen 2.5×10^7/mL; the same cell line used in the beta-lactamase assay described above) are removed from cryopreservation and diluted in growth medium (Dulbecco's modified Eagle medium high glucose (DMEM; Gibco Cat # 11995-065), 1% charcoal dextran treated fetal bovine serum (CD serum; HyClone Cat # SH30068.03), 1×MEM Nonessential amino acids (Gibco Cat # 15630-080) and 25 mM HEPES pH 7.0 (Gibco Cat # 15630-080)). The cell concentration was adjusted to 1.5×10^5 cells/mL and 30 mLs of this suspension was added to a T-175 flask and incubated at 37 degrees Celsius in a humidified environment in 5% carbon dioxide. After 16 hours (overnight), the cells were removed from the T-175 flask (by rapping the side of the flask), centrifuged at 800×g and then re-suspended in assay medium (1×HBSS+CaCl2+MgCl2 (Gibco Cat # 14025-092) and 25 mM HEPES pH 7.0 (Gibco Cat # 15630-080)). The cell concentration was adjusted to 6.25×10^5 cells/mL with assay medium and 8 μl of this cell suspension (5000 cells) was added to each well of a white Greiner 384-well, low-volume assay plate (VWR cat #82051-458).
Varying concentrations of each compound to be tested were diluted in assay buffer containing 3-isobutyl-1-methylxanthin (IBMX; Sigma cat #15879) and added to the assay plate wells in a volume of 2 microL (final IBMX concentration was 400 microM and final DMSO concentration was 0.58%). Following 30 minutes incubation at room temperature, 5 microL of labeled d2 cAMP and 5 microL of anti-cAMP antibody (both diluted 1:20 in cell lysis buffer; as described in the manufacturers assay protocol) were added to each well of the assay plate. The plates were then incubated at room temperature and after 60 minutes, changes in the HTRF signal were read with an Envision 2104 multilabel plate reader using excitation of 330 nm and emissions of 615 and 665 nm. Raw data were converted to nM cAMP by interpolation from a cAMP standard curve (as described in the manufacturer's assay protocol) and EC50 determinations were made from an agonist-response curves analyzed with a curve fitting program using a 4-parameter logistic dose response equation.

Experiment [3] concerns the target T1, human GPR119. The experiment is described as follows: β-Lactamase reporter functional assay (hGPR119 HEK293-CRE beta-lactamase cells). In kind it is cell-based. Also noted: host or cells: HEK293-CRE beta-lactamase; Emax: dose or concentration left out as unconfirmed. Here is the method: The assay for GPR119 agonists utilizes a cell-based (hGPR119 HEK293-CRE beta-lactamase) reporter construct where agonist activation of human GPR119 is coupled to beta-lactamase production via a cyclic AMP response element (CRE). GPR119 activity is then measured utilizing a FRET-enabled beta-lactamase substrate, CCF4-AM (Live Blazer FRET-B/G Loading kit, Invitrogen cat #K1027). Specifically, hGPR119-HEK-CRE-beta-lactamase cells (Invitrogen 2.5×10^7/mL) were removed from liquid nitrogen storage, and diluted in plating medium (Dulbecco's modified Eagle medium high glucose (DMEM; Gibco Cat # 11995-065), 10% heat inactivated fetal bovine serum (HIFBS; Sigma Cat # F4135), 1×MEM Nonessential amino acids (Gibco Cat # 15630-080), 25 mM HEPES pH 7.0 (Gibco Cat # 15630-080), 200 nM potassium clavulanate (Sigma Cat # P3494). The cell concentration was adjusted using cell plating medium and 50 microL of this cell suspension ([…]) was added into each well of a black, clear bottom, poly-d-lysine coated 384-well plate (Greiner Bio-One cat# 781946) and incubated at 37 degrees Celsius in a humidified environment containing 5% carbon dioxide. After 4 hours the plating medium was removed and replaced with 40 microL of assay medium (Assay medium is plating medium without potassium clavulanate and HIFBS). Varying concentrations of each compound to be tested was then added in a volume of 10 microL (final DMSO ≦0.5%) and the cells were incubated for 16 hours at 37 degrees Celsius in a humidified environment containing 5% carbon dioxide. Plates were removed from the incubator and allowed to equilibrate to room temperature for approximately 15 minutes. 10 microL of 6×CCF4/AM working dye solution (prepared according to instructions in the Live Blazer FRET-B/G Loading kit, Invitrogen cat #K1027) was added per well and incubated at room temperature for 2 hours in the dark. Fluorescence was measured on an EnVision fluorimetric plate reader, excitation 405 nm, emission 460 nm/535 nm. EC50 determinations were made from agonist-response curves analyzed with a curve fitting program using a 4-parameter logistic dose-response equation.

As to `Cc1c(O[C@H]2[C@@H]3COC[C@H]2CN(C(=O)OC(C)(C)C)C3)ncnc1N1CCc2ncccc21` [Example 21, tert-Butyl (9-anti)-9-{[6-(2,3-dihydro-1H-pyrrolo[3,2-b]pyridin-1-yl)-5-methylpyrimidin-4-yl]oxy}-3-oxa-7-azabicyclo[3.3]nonane-7-carboxylate], the Ki (as a rule, the dissociation constant of the complex between target and ligand, obtained from inhibition or displacement) in experiment [1] is 26 nM and 25.6 nM. Also, in experiment [2], the EC50 (usually the concentration giving half of the maximal effect) is 107 nM and 87.8 nM; the “Intrinsic Activity (Human cAMP)” value was 45.2%; the Emax was found to be 49.8%.

With `COc1c(OC2CCN(C(=O)OC(C)C)CC2)ncnc1N1CCc2cc(S(C)(=O)=O)ccc21` [Example 7, Isopropyl 4-({5-methoxy-6-[5-(methylsulfonyl)-2,3-dihydro-1H-indol-1-yl]pyrimidin-4-yl}oxy)piperidine-1-carboxylate], the EC50 in experiment [3] (hGPR119 HEK293-CRE beta-lactamase cells, 16 h incubation, each line a separate determination, read-out: Human B-lactamase Functional EC50) stood at 96.6 nM. The Emax in experiment [3] (percent of maximal activity relative to standard GPR119 agonist at 10 micromolar, read-out: Intrinsic Activity (Human B-lactamase)) worked out at 101%. Besides, in experiment [1], the Ki is 285 nM.

Regarding `Cc1c(O[C@@H]2CCN(C(=O)OC(C)(C)C)C[C@@H]2F)ncnc1N1CCc2nnccc21` [Example 30, tert-Butyl (3S,4R)-4-{[6-(6,7-dihydro-5H-pyrrolo[3,2-c]pyridazin-5-yl)-5-methylpyrimidin-4-yl]oxy}-3-fluoropiperidine-1-carboxylate], the Ki in experiment [1] is above 8150 nM. In experiment [2], the EC50 is 549 nM and 520 nM; the “Intrinsic Activity (Human cAMP)” value is listed as 28%; the Emax stood at 28%.
